Measurements reported in US12692254B2, “Benzimidazole inhibitors of PAD enzymes” (BRISTOL-MYERS SQUIBB COMPANY, priority 2018, dated 2026).

Target: human PAD4 (hPAD4) (Homo sapiens, UniProt Q9UM07)
Test: RFMS human PAD4 functional assay (rapid-fire mass spectrum)
Format: biochemical
Settings: 5 nM hPAD4 enzyme, 250 μM BAEE, 50 μM Calcium; 30 min preincubation, 90 min reaction at 37° C.
How it was run: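 PAD4 (10 nM) preincubated 30 min with compound (top final 50 μM), then BAEE substrate added in pH 7.5 HEPES buffer with DTT, 50 μM calcium, TPEN; 90 min at 37° C. After TCA quench, citrulline derivatized with phenyl glyoxal (4 mM final, 30 min, 37° C) and quantified by RapidFire MS against internal standard.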

Chain of human PAD4 (hPAD4) (Q9UM07 whole entry): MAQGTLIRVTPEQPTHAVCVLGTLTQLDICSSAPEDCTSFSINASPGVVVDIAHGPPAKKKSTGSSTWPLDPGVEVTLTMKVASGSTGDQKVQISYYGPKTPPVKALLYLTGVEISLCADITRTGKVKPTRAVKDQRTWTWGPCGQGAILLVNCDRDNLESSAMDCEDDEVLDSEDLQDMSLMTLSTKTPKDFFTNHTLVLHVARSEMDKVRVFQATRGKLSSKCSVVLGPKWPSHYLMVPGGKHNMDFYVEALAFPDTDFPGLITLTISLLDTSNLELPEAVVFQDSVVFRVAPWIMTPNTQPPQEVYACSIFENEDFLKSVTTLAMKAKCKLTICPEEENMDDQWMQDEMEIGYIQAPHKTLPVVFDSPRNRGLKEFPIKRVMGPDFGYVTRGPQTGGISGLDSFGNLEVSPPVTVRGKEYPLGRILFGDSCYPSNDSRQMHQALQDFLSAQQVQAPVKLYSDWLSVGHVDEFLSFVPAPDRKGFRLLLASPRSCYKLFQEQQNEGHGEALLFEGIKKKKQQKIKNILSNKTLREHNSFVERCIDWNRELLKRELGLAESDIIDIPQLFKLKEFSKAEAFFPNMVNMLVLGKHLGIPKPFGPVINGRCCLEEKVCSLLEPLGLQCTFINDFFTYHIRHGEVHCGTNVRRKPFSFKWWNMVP

SMILES | IC50
COc1cc(C(=O)N2C[C@H]3CC[C@@H]2[C@@H]3N)cc2nc(-c3cc4ccccc4n3CC3CC3)n(Cc3cccs3)c12 [Example 256, (1R,4R,7R)-2-{2-[1-(cyclopropylmethyl)-1H-indol-2-yl]-7-methoxy-1-[(thiophen-2-yl)methyl]-1H-1,3-benzodiazole-5-carbonyl}-2-azabicyclo[2.2.1]heptan-7-amine] | 41 nM
COc1cc(C(=O)N2C[C@H]3CC[C@@H]2[C@@H]3N)cc2nc(-c3cc4ccccc4n3CC3CC3)n(Cc3cnn(Cc4ccccc4)c3)c12 [Example 259, (1R,4R,7R)-2-{1-[(1-benzyl-1H-pyrazol-4-yl)methyl]-2-[1-(cyclopropylmethyl)-1H-indol-2-yl]-7-methoxy-1H-1,3-benzodiazole-5-carbonyl}-2-azabicyclo[2.2.1]heptan-7-amine] | 44 nM
COc1cc(C(=O)N2C[C@H]3CC[C@@H]2[C@@H]3N)cc2nc(-c3cc4ccccc4n3CC3CC3)n(CCCOc3ccc(C#N)cc3)c12 [Example 260, 4-(3-{5-[(1R,4R,7R)-7-amino-2-azabicyclo[2.2.1]heptane-2-carbonyl]-2-[1-(cyclopropylmethyl)-1H-indol-2-yl]-7-methoxy-1H-1,3-benzodiazol-1-yl}propoxy)benzonitrile] | 48 nM
COc1cc(C(=O)N2C[C@H]3CC[C@@H]2[C@@H]3N)cc2nc(-c3cc4cccnc4n3CC3CC3)n(C[C@H]3CCNC3)c12 [Example 263, (1R,4R,7R)-2-{2-[1-(cyclopropylmethyl)-1H-pyrrolo[2,3-b]pyridin-2-yl]-7-methoxy-1-{[(3S)-pyrrolidin-3-yl]methyl}-1H-1,3-benzodiazole-5-carbonyl}-2-azabicyclo[2.2.1]heptan-7-amine] | 20 nM
COc1cc(C(=O)N2CC3CCC2[C@@H]3N)cc2nc(-c3cc4ccccc4n3CC3CC3)n(CC3CCS(=O)(=O)C3)c12 (stereo partly drawn) [Example 264, ((7R)-7-amino-2-azabicyclo[2.2.1]heptan-2-yl)(2-(1-(cyclopropylmethyl)-1H-indol-2-yl)-1-((1,1-dioxidotetrahydrothiophen-3-yl)methyl)-7-methoxy-1H-benzo[d]imidazol-5-yl)methanone] | 57 nM
COc1cc(C(=O)N2C[C@H]3CC[C@@H]2[C@@H]3N)cc2nc(-c3cc4ccccc4n3CC3CC3)n(Cc3csc(C)n3)c12 [Example 269, (1R,4R,7R)-2-{2-[1-(cyclopropylmethyl)-1H-indol-2-yl]-7-methoxy-1-[(2-methyl-1,3-thiazol-4-yl)methyl]-1H-1,3-benzodiazole-5-carbonyl}-2-azabicyclo[2.2.1]heptan-7-amine] | 127 nM
COc1cc(C(=O)N2CC3CCC2[C@@H]3N)cc2nc(-c3cc4ccccc4n3CC3CC3)n(Cc3ccccc3)c12 (stereo partly drawn) [Example 270] | 140 nM
COc1cc(C(=O)N2C[C@H](N)C[C@@H](F)C2)cc2nc(-c3cc4ccccc4n3CC3CC3)n(CCCOc3ccc(C#N)cc3)c12 [Example 271, 4-(3-{5-[(3R,5R)-3-amino-5-fluoropiperidine-1-carbonyl]-2-[1-(cyclopropylmethyl)-1H-indol-2-yl]-7-methoxy-1H-1,3-benzodiazol-1-yl}propoxy)benzonitrile] | 145 nM
COc1cc(C(=O)C2C[C@H]3CC[C@H]2[C@@H]3N)cc2nc(-c3cc4ccccc4n3CC3CC3)n(C[C@H]3CCNC3)c12 (stereo partly drawn) [Example 273, (1R,4R,7R)-2-{2-[1-(cyclopropylmethyl)-1H-indol-2-yl]-7-methoxy-1-{[(3S)-pyrrolidin-3-yl]methyl}-1H-1,3-benzodiazole-5-carbonyl}bicyclo[2.2.1]heptan-7-amine] | 33 nM
COc1cc(C(=O)N2C[C@H]3CC[C@@H]2[C@@H]3N)cc2nc(-c3cc4ccccc4n3CC3CC3)n(CC3CCC(=O)N3)c12 (stereo partly drawn) [Example 275, 5-({5-[(1R,4R,7R)-7-amino-2-azabicyclo[2.2.1]heptane-2-carbonyl]-2-[1-(cyclopropylmethyl)-1H-indol-2-yl]-7-methoxy-1H-1,3-benzodiazol-1-yl}methyl)pyrrolidin-2-one] | 298 nM

Next, values leading:

IC50 | SMILES
41 nM | COc1cc(C(=O)N2C[C@H](N)C[C@@H](F)C2)cc2nc(-c3cc4ccccc4n3CC3CC3)n(Cc3cnn(C)c3)c12 [Example 257, (3R,5R)-1-{2-[1-(cyclopropylmethyl)-1H-indol-2-yl]-7-methoxy-1-[(1-methyl-1H-pyrazol-4-yl)methyl]-1H-1,3-benzodiazole-5-carbonyl}-5-fluoropiperidin-3-amine]
49 nM | COc1cc(C(=O)N2C[C@H](N)C[C@@H](F)C2)cc2nc(-c3cc4ccccc4n3CC3CC3)n(Cc3cnn(-c4ccccc4)c3)c12 [Example 261, (3R,5R)-1-{2-[1-(cyclopropylmethyl)-1H-indol-2-yl]-7-methoxy-1-[(1-phenyl-1H-pyrazol-4-yl)methyl]-1H-1,3-benzodiazole-5-carbonyl}-5-fluoropiperidin-3-amine]
65 nM | COc1cc(C(=O)N2C[C@H]3CC[C@@H]2[C@@H]3N)cc2nc(-c3cc4ccccc4n3CC3CC3)n(Cc3ccnn3C)c12 [Example 265, (1R,4R,7R)-2-{2-[1-(cyclopropylmethyl)-1H-indol-2-yl]-7-methoxy-1-[(1-methyl-1H-pyrazol-5-yl)methyl]-1H-1,3-benzodiazole-5-carbonyl}-2-azabicyclo[2.2.1]heptan-7-amine]
82 nM | COc1cc(C(=O)N2C[C@H](N)C[C@@H](F)C2)cc2nc(-c3cc4ccccc4n3CC3CC3)n(Cc3cn[nH]c3)c12 [Example 266, (3R,5R)-1-{2-[1-(cyclopropylmethyl)-1H-indol-2-yl]-7-methoxy-1-[(1H-pyrazol-4-yl)methyl]-1H-1,3-benzodiazole-5-carbonyl}-5-fluoropiperidin-3-amine]
98 nM | COc1cc(C(=O)N2CCC[C@@H](N)C2)cc2nc(-c3cc4ccccc4n3CC3CC3)n(Cc3cnn(C)c3)c12 [Example 267, (3R)-1-{2-[1-(cyclopropylmethyl)-1H-indol-2-yl]-7-methoxy-1-[(1-methyl-1H-pyrazol-4-yl)methyl]-1H-1,3-benzodiazole-5-carbonyl}piperidin-3-amine]
114 nM | COc1cc(C(=O)N2C[C@H]3CC[C@@H]2[C@@H]3N)cc2nc(-c3cc4ccccc4n3CC3CC3)n(Cc3ccon3)c12 [Example 268, (1R,4R,7R)-2-{2-[1-(cyclopropylmethyl)-1H-indol-2-yl]-7-methoxy-1-[(1,2-oxazol-3-yl)methyl]-1H-1,3-benzodiazole-5-carbonyl}-2-azabicyclo[2.2.1]heptan-7-amine]
179 nM | COc1cc(C(=O)N2C[C@H]3CC[C@@H]2[C@@H]3N)cc2nc(-c3cc4ccccc4n3CC3CC3)n(Cc3ccncc3)c12 [Example 272, (1R,4R,7R)-2-(2-[1-(cyclopropylmethyl)-1H-indol-2-yl]-7-methoxy-1-[(pyridin-4-yl)methyl]-1H-1,3-benzodiazole-5-carbonyl}-2-azabicyclo[2.2.1]heptan-7-amine]
261 nM | COc1cc(C(=O)N2C[C@H](N)C[C@@H](F)C2)cc2nc(-c3cc4ccccc4n3CC3CC3)n(CCCN3CCCC3=O)c12 [Example 274, 1-(3-{5-[(3R,5R)-3-amino-5-fluoropiperidine-1-carbonyl]-2-[1-(cyclopropylmethyl)-1H-indol-2-yl]-7-methoxy-1H-1,3-benzodiazol-1-yl}propyl)pyrrolidin-2-one]
